Measurements from US9963674B2, “Age-modified cells and methods for making age-modified cells” (Memorial Sloan-Kettering Cancer Center, priority 2013, dated 2018).

What was measured:
iPSC-derived mDA neurons = experiment: Progerin modified-RNA overexpression in iPSC-derived mDA neurons, age-associated markers; format: cell-based, human
Method: (§1) The following is a protocol for progerin overexpression using modified-RNA in differentiating or differentiated iPSC-derived cells: • 1. Prepare progerin-modified-RNA (methods of synthesis are described in Example 9) and deliver to iPSC-derived somatic cells using Lipofectamine RNAiMAX (Life Technologies) and incubate • a. For iPSC-derived fibroblasts repeat transfection for 3 consecutive days. • i. Note: Amount/duration combination optimizes treatment for minimal toxicity and earliest significant effects. • b. For iPSC-derived dopamine neurons repeat transfection for 5 consecutive days. • i. Note: Amount/duration combination optimizes treatment for minimal toxicity and earliest significant effects. • c. For other iPSC-derived somatic cells perform pilot experiments to determine amount and duration of progerin modified-RNA. • d. Analyze maturation and/or age-associated phenotypes. • Alternatively, expression of progerin can also be achieved through the use of temperature-sensitive Sendai virus expressing progerin. Additionally, expression of progerin can be achieved by using lentivirus.
(§2) For overexpression experiments, modified-RNA was thawed on ice and adjusted to a working concentration of 100 ng/μl. Per 100,000-cell transfection, 200 ng of modified-RNA was diluted up to 10 μl in Opti-MEM medium (Life Technologies), vortexed, and incubated at room temperature for 10 minutes. In a separate tube, 0.6 μl Lipofectamine RNAiMAX® (Life Technologies) was diluted up to 10 μl in Opti-MEM and incubated for the same timeframe. The Lipofectamine mixture was then transferred to the tube containing the modified-RNA mixture, vortexed and incubated for an additional 10 minutes. The transfection mixture was added dropwise to cells that had been pre-treated with 200 ng/ml of the interferon inhibitor B18R (eBioscience, San Diego, Calif.) for at least 4 hours prior to transfection.
(§3) After 4 hours at 37° C., the entire suspension was replaced with fresh medium supplemented with B18R. Transfection of iPSC-derived fibroblasts was performed starting on day 50 of differentiation and repeated on 2 consecutive days thereafter. iPSC-derived mDA neurons were transfected starting on day 65 or day 120 of differentiation and repeated on 4 consecutive days thereafter. The additional 2 days of transfections were done in order to establish a phenotype in iPSC-derived mDA neurons. Cells were analyzed one day after the final transfection.
(§4) Cells were fixed in 4% paraformaldehyde for 15 minutes. Blocking was performed in phosphate-buffered saline supplemented with 1% BSA, and 0.3% Triton X-100 for 30 minutes to 1 hour. Cells were stained overnight at 4° C. with primary antibodies diluted in blocking buffer. Following several washes, cells were stained with appropriate Alexa Fluor-labeled secondary antibodies (Molecular Probes, Carlsbad, Calif.) at 1:500 in blocking buffer for 30 minutes to 3 hours at room temperature. Cells were counterstained with 4′,6-diamidino-2-phenylindole (DAPI; Thermo Fisher, Rockford, Ill.) to visualize nuclei. Images were acquired with an Olympus IX81 microscope using a Hamamatsu ORCA CCD camera.
Passage-matched cells were scored from three independent experiments. Where necessary due to bias against progerin-positive cells, images were processed using ImageJ software (version 1.43u, NIH). In these cases, 50 cells per condition were assessed for each independent experiment. Data are presented as mean±standard error of means (SEM). […]

iPSC-derived fibroblasts = experiment: Progerin modified-RNA overexpression in iPSC-derived fibroblasts, age-associated markers (immunocytochemistry, MitoSOX); format: cell-based, human; conditions: modified-RNA 3 days; young and old donor iPSC-derived fibroblasts; vs nuclear-GFP
Method: as §1, §2, §3, §4
Images were acquired on an Operetta (PerkinElmer, Waltham, Mass.) using a 20× objective. Image processing was performed using Harmony high content analysis software (version 3.0).
Passage-matched cells were scored from three independent experiments. […] In these cases, 50 cells per condition were assessed for each independent experiment. […]

[1] = test system: iPSC-derived mDA neuron grafts in NOD-SCID IL2Rgc-null mice; experiment: Ultrastructural analysis of grafts by transmission electron microscopy; format: in vivo; conditions: six months, PD-derived grafts overexpressing progerin
Method: Procedures were performed according to (Milner et al., Methods Mol Biol 793:23-59 (2011)). Briefly, six months following transplantation of human iPSC-derived mDA neurons, mice were overdosed with 150 mg/kg sodium pentobarbital intraperitoneally. The brains were fixed by aortic arch perfusion sequentially with normal saline (0.9%) containing 1000 units/ml of Heparin, 50 ml of 3.75% acrolein and 2% paraformaldehyde in 0.1 M phosphate buffer (PB, pH 7.4), and 200 ml of 2% PFA in PB. The brains were removed and post-fixed with 1.87% acrolein/2% PFA in PB for 30 minutes at room temperature. Coronal tissue blocks were sectioned (40 μm) on a vibrating microtome (Leica Microsystems, Deerfield, Ill.). Selected sections containing the xenograft were pretreated in 1% sodium borohydride. Non-specific binding was blocked with 0.5% BSA 0.1 M Tris-saline (TS, pH 7.6). Primary antibodies (see Table S4) were diluted in 0.1% BSA in TS and incubated overnight at 4° C. Sections were incubated with a biotinylated secondary antibody (Jackson ImmunoResearch, West Grove, Pa.) for 30 minutes at room temperature. […] The number of TH-immunogold particles per μm^2 in 25 dendrites per group and the area (μm^2) quantification of 25 mitochondria per group were performed using ImageJ.

[2] = modified-RNA 5 days, GFP-positive mDA neurons

GFP-progerin: progerin (truncated lamin A) fused to GFP, SEQ ID No. 2, overexpressed via modified-RNA or hSyn lentivirus
phenotype after acute 3-day overexpression (iPSC-derived mDA neurons; modified-RNA 3 days, iPSC-derived mDA neurons): no obvious phenotype
DNA damage (γH2AX foci) (iPSC-derived mDA neurons; [2]): increased accumulation of DNA damage
nuclear folding and blebbing (iPSC-derived mDA neurons; [2]): enhanced nuclear folding and blebbing
LAP2α, H3K9me3 and HP1γ immunocytochemistry (iPSC-derived mDA neurons; modified-RNA 5 days, iPSC-mDA neurons, GFP-progerin vs nuclear-GFP): no difference
mitochondrial superoxide (iPSC-derived mDA neurons; modified-RNA 5 days, mDA neurons): signs of mitochondrial dysfunction
DNA damage (γH2AX) (iPSC-derived fibroblasts): formation of DNA double strand breaks
LAP2α expression (iPSC-derived fibroblasts): loss of LAP2α expression
heterochromatin markers (H3K9me3 and HP1γ) (iPSC-derived fibroblasts): loss of heterochromatin markers
mitochondrial superoxide (MitoSOX) (iPSC-derived fibroblasts): increased mitochondrial dysfunction
nuclear morphology (iPSC-derived fibroblasts): induced nuclear morphology abnormalities
fibrillar bodies (neurite degeneration) [1]: prominent
